Values of other authors, collected in patent US11191849B2, “Compositions and methods for delivering messenger RNA” (ARBUTUS BIOPHARMA CORPORATION, priority 2016, dated 2021).

SMILES	log P
CC(C)C(=O)OCC(=O)[C@@]12O[C@H](C3CCCCC3)O[C@@H]1C[C@H]1[C@@H]3CCC4=CC(=O)C=C[C@]4(C)[C@H]3[C@@H](O)C[C@@]12C [Ciclesonide]	~5.3
CCC(=O)O[C@]1(C(=O)CCl)[C@@H](C)C[C@H]2[C@@H]3CCC4=CC(=O)C=C[C@]4(C)[C@@]3(F)[C@@H](O)C[C@@]21C [Clobetasol, clobetasol-17-propionate]	~3.5
CCCCCCCCCCCCCCCC(=O)OCC(=O)[C@@]1(O)[C@H](C)C[C@H]2[C@@H]3CCC4=CC(=O)C=C[C@]4(C)[C@@]3(F)[C@@H](O)C[C@@]21C [Dex-P, Dexamethasone 21-palmitate]	~9
